The source of these data is the OligoGym collection.

Several values for one entry are separate records, joined by “and”; a condition that tells them apart may be missing. Equal values may be shown once. After the bases stand the sugars from the 5' end (letter, count) and the backbone: PS all phosphorothioate, else s phosphorothioate and o phosphodiester by linkage. Methylation of C is not given here. k = constrained ethyl (cEt); d = 2'-deoxy (DNA)

The series addresses MALAT1. As to conditions: ASO, A431, 0.005 µM.
As to TAAAGAGTGTTCGCAG (sugars k3 d10 k3, PS), the target mRNA inhibition was found to be 51%.

As to TAAAGTCTGATTAAGG (sugars k3 d10 k3, PS), the target mRNA inhibition is 4%.

Regarding TAAAGTGTGATAGTTC (sugars k3 d10 k3, PS), the target mRNA inhibition amounted to 14%.

For the sequence TAAATTGGTTACCAAT (sugars k3 d10 k3, PS), the target mRNA inhibition worked out at 25%.

In the case of TAACGAAGAGATACCT (sugars k3 d10 k3, PS), the target mRNA inhibition worked out at 22%.

As for TAAGACCATCCCAAAA (sugars k3 d10 k3, PS), the target mRNA inhibition worked out at 16%.

TAAGATAGCAGCACAA (sugars k3 d10 k3, PS): the target mRNA inhibition was -3%.

Consider TAAGATTGTAAGCATT (sugars k3 d10 k3, PS), for which the target mRNA inhibition is 23%.

Regarding TAAGTTGGTAATTACT (sugars k3 d10 k3, PS), the target mRNA inhibition was found to be 17%.

Take TAATACCCTTCTGTTA (sugars k3 d10 k3, PS): the target mRNA inhibition was 19%.

On to TAATCATACTCCAGTC (sugars k3 d10 k3, PS), for which the target mRNA inhibition was -3%.

As to TAATGCACTGGTACAC (sugars k3 d10 k3, PS), the target mRNA inhibition is -22%.

For TACAACACCCGGAAAT (sugars k3 d10 k3, PS), the target mRNA inhibition came out at 16%.

For the sequence TACACCTTGAGTCATT (sugars k3 d10 k3, PS), the target mRNA inhibition was determined as 38%.

As to TACACTCACTAGAACA (sugars k3 d10 k3, PS), the target mRNA inhibition worked out at 3%.

With TACATCAAGGATGTAT (sugars k3 d10 k3, PS), the target mRNA inhibition worked out at 2%.

As for TACCACCTTTTGAAGG (sugars k3 d10 k3, PS), the target mRNA inhibition came to 13%.

With TACCACTCCCAATTAA (sugars k3 d10 k3, PS), the target mRNA inhibition is 12%.

TACCACTCTAAGATTG (sugars k3 d10 k3, PS): the target mRNA inhibition is 5%.

Regarding TACCATAAGTAAGTTC (sugars k3 d10 k3, PS), the target mRNA inhibition was 4%.

For TACCGTTTTTCAGCTT (sugars k3 d10 k3, PS), the target mRNA inhibition is -31%.

Take TACCTTGAAACCGATT (sugars k3 d10 k3, PS): the target mRNA inhibition was found to be 36%.

Regarding TACTCTGATCATAATC (sugars k3 d10 k3, PS), the target mRNA inhibition worked out at 17%.

Regarding TACTGAAAACTCCCCC (sugars k3 d10 k3, PS), the target mRNA inhibition was found to be 22%.

Turning to TACTTGTCTTAGCTTG (sugars k3 d10 k3, PS), the target mRNA inhibition is 51%.

As for TACTTTCCATTACGCA (sugars k3 d10 k3, PS), the target mRNA inhibition worked out at 16%.

In the case of TAGCTTCCTTCACCAA (sugars k3 d10 k3, PS), the target mRNA inhibition was -1%.

With TAGGGCTTCTCAAAAC (sugars k3 d10 k3, PS), the target mRNA inhibition was 4%.

For TAGTGGTTCCCAATCC (sugars k3 d10 k3, PS), the target mRNA inhibition was found to be 14%.

Take TAGTTCAACCCACCAA (sugars k3 d10 k3, PS): the target mRNA inhibition is -14%.

For the sequence TAGTTGTATTAATCTC (sugars k3 d10 k3, PS), the target mRNA inhibition worked out at 38%.

Turning to TAGTTTACCACCTTTT (sugars k3 d10 k3, PS), the target mRNA inhibition turned out to be 15%.

TATGGAACTTGAATGC (sugars k3 d10 k3, PS): the target mRNA inhibition was found to be 24%.

Turning to TATTCCCCAATGGAGG (sugars k3 d10 k3, PS), the target mRNA inhibition turned out to be 17%.

For TATTCTTTTCTTCGCC (sugars k3 d10 k3, PS), the target mRNA inhibition was 49%.

Consider TCAACTGGGAATACTC (sugars k3 d10 k3, PS), for which the target mRNA inhibition is 17%.

With TCAAGGTCTTTTAATC (sugars k3 d10 k3, PS), the target mRNA inhibition was found to be 41%.

Consider TCAATGCCTACCGCAC (sugars k3 d10 k3, PS), for which the target mRNA inhibition amounted to 3%.

On to TCACAAAACCCCCGGA (sugars k3 d10 k3, PS), for which the target mRNA inhibition was 16%.

Take TCACCAAGGAGCTGTT (sugars k3 d10 k3, PS): the target mRNA inhibition amounted to 12%.

As for TCAGGCGAGCTGAGGC (sugars k3 d10 k3, PS), the target mRNA inhibition was determined as 7%.

TCAGGGTGAGGAAGTA (sugars k3 d10 k3, PS): the target mRNA inhibition came to 50%.

For TCATACACTCACTAGA (sugars k3 d10 k3, PS), the target mRNA inhibition is -22%.

As to TCATACTGCCAGGCTG (sugars k3 d10 k3, PS), the target mRNA inhibition came out at 29%.

On to TCATATTTTAAACGGG (sugars k3 d10 k3, PS), for which the target mRNA inhibition was 23%.

As to TCATCAAACACCTCAC (sugars k3 d10 k3, PS), the target mRNA inhibition was -8%.

In the case of TCATCAAACACTGGTT (sugars k3 d10 k3, PS), the target mRNA inhibition stood at 36%.

As to TCATCTCAACCTCCGT (sugars k3 d10 k3, PS), the target mRNA inhibition was 57% and 49%.

Turning to TCCAAAAGAGAACCAC (sugars k3 d10 k3, PS), the target mRNA inhibition was 21%.

For the sequence TCCAAGCTACTGGCTG (sugars k3 d10 k3, PS), the target mRNA inhibition turned out to be 20%.

Take TCCAATGGACATCTCT (sugars k3 d10 k3, PS): the target mRNA inhibition turned out to be 25%.

Regarding TCCAGGATTAATGTAG (sugars k3 d10 k3, PS), the target mRNA inhibition is 48%.

Turning to TCCATTACGCAACTGA (sugars k3 d10 k3, PS), the target mRNA inhibition came out at 9%.

Regarding TCCCACCCAGCATTAC (sugars k3 d10 k3, PS), the target mRNA inhibition amounted to 27%.

TCCCTATATAAGGTCA (sugars k3 d10 k3, PS): the target mRNA inhibition came to 5%.

As to TCCGCCGCCTCTTAAA (sugars k3 d10 k3, PS), the target mRNA inhibition turned out to be 26%.

With TCCGCTAAGATGCTAG (sugars k3 d10 k3, PS), the target mRNA inhibition was 15%.

With TCCGCTCAAATCCTGA (sugars k3 d10 k3, PS), the target mRNA inhibition is 26%.

As to TCCGTCATGTTTTAGA (sugars k3 d10 k3, PS), the target mRNA inhibition was 50% and 48%.

For TCCGTTACGAAAGTCC (sugars k3 d10 k3, PS), the target mRNA inhibition is 64% and 59% and 50%.

Take TCCTAGCTTCATCAAA (sugars k3 d10 k3, PS): the target mRNA inhibition worked out at 7%.

In the case of TCCTCAAGCTCCGCCT (sugars k3 d10 k3, PS), the target mRNA inhibition was found to be 23%.

Consider TCCTGCATGTAAGAAT (sugars k3 d10 k3, PS), for which the target mRNA inhibition turned out to be 15%.

TCCTTCACCAAATCGC (sugars k3 d10 k3, PS): the target mRNA inhibition came out at 36%.

Take TCGCACTGGCTCCTGG (sugars k3 d10 k3, PS): the target mRNA inhibition is 42%.

For the sequence TCGCCATGGAAAGCGA (sugars k3 d10 k3, PS), the target mRNA inhibition was determined as 15%.

As for TCGCTTTTATTCTGCT (sugars k3 d10 k3, PS), the target mRNA inhibition is 22%.

For TCTAATCACTGTCAAT (sugars k3 d10 k3, PS), the target mRNA inhibition was 32%.

With TCTACCGTTTTTCAGC (sugars k3 d10 k3, PS), the target mRNA inhibition was determined as 26%.

Regarding TCTAGACAGACCTAAG (sugars k3 d10 k3, PS), the target mRNA inhibition was -6%.

As to TCTATTGCCATGTGCC (sugars k3 d10 k3, PS), the target mRNA inhibition stood at 41%.
